The source of these data is patent US20110251286A1, “Crystalline salts and/or co-crystals of O-desmethyltramadol” (GRUENENTHAL GmbH, priority 2010, published 2011).

The nature of data set [1]: Release in artificial intestinal juice. Format: physicochemical. The following applies: for Release in artificial intestinal juice, percent of the substance released: permeable bag, amount calculated on 100 mg free base; for release rate compared to the hydrochloride salt: in artificial intestinal juice. As to the method: Investigations on release were carried out in a Sotax AT7 smart release apparatus with UV measurement (Perkin Elmer photometer).
A vessel with Wood apparatus was used (for intrinsic release).
A pressing of 0.5 cm^2 surface area (diameter 8 mm) was produced with a force of 200 N using approximately 100 mg of active ingredient.
Release was carried out in a release medium, which is composed as described below: • Intestinal juice without pancreas powder, pH 6.8 (analogous to Ph. Eur.); 250.0 ml 6.8 g of potassium dihydrogenphosphate R+0.896 g of NaOH+water to 1000.0 ml.
Release was carried out in a release volume of in each case 500±5 ml at a temperature of the release medium of 37±1° C. with a stirring speed of 100±5 rpm.
The content determination was carried out by means of spectroscopic methods (UV spectroscopy, wavelength: 271 nm, cuvette: 10 mm). Sample taking was carried out manually.
In this release experiment, the individual compounds were placed in a permeable bag in an amount in each case calculated on 100 mg of the free base.
The results, expressed in percent of the substance released, are reproduced in the following tables. In this case, the compounds denote: HCl: hydrochloride; A: cinnamate; B: palmitate; C: decanoate; E: hemi-fumarate and F: hemi-sebacate.

Data set [2] can be described thus: Dynamic vapor sorption (DVS): sorption and desorption of moisture. Format: physicochemical. How it is done:
Investigations on the sorption and desorption of moisture (dynamic vapor sorption, DVS): DVS measurements were carried out on an apparatus of the type DVS 1000 from Porotec. The evaluation of the measurements was carried out using software from Surface Measurement Systems. At a temperature between 23° C. and 26° C., starting from a relative humidity of 50%, within 240 minutes the relative humidity first increased to 90% and then fell to 0%. This cycle was repeated a second time. The DVS charts shown are isothermal recordings (plots) of the change in the mass in % (change in mass—dry) as a function of the desired relative humidity in % (target RH). Correspondingly, the axes of the graphs are marked by ΔM [%] and RH [%]. The measurement curves of the first sorption are designated by 1-S, the subsequent first desorption by 1-D, the second sorption by 2-S and the second desorption by 2-D. Advantageously, mass changes between the sorption and desorption phase are as low as possible.

With `CN(C)CC1CCCCC1(O)c1cccc(O)c1.CN(C)CC1CCCCC1(O)c1cccc(O)c1.O=C(O)CCCCCCCCC(=O)O` (stereo not shown) [F-1], the “Release in artificial intestinal juice, percent of the substance released” value (“Release … percent of the substance released” below) is 90.31% in data set [1] (t 2 min); 95.86% in data set [1] (t 4 min); 98.37% in data set [1] (t 6 min); 99.10% in data set [1] (t 8 min); 98.48% in data set [1] (t 10 min); 98.55% in data set [1] (t 12 min). For the same compound, the figures for the “Release … percent of the substance released” value in data set [1] (t 15 min) and in data set [1] (t 30 min) were 99.15% and 98.74%, respectively.
With `CN(C)CC1CCCCC1(O)c1cccc(O)c1.CN(C)CC1CCCCC1(O)c1cccc(O)c1.O=C(O)CCCCCCCCC(=O)O` (stereo not shown) [F-2], the “Release … percent of the substance released” value in data set [1] (t 2 min) is reported as 96.05%; in data set [1] (t 4 min), 99.26%; in data set [1] (t 6 min) it was 100.16%; in data set [1] (t 8 min), 1.21%; in data set [1] (t 10 min) it was 100.92%; in data set [1] (t 12 min), 101.24%. The “Release … percent of the substance released” value in data set [1] (t 15 min) is 101.22%; in data set [1] (t 30 min), 101.26%.
As to `CN(C)C[C@H]1CCCC[C@]1(O)c1cccc(O)c1.Cl` [HCl-1], the “Release … percent of the substance released” value is reported as 99.16% in data set [1] (t 2 min); 99.89% in data set [1] (t 4 min); 98.77% in data set [1] (t 6 min); 101.08% in data set [1] (t 8 min); 100.57% in data set [1] (t 10 min); 100.66% in data set [1] (t 12 min). Further, the figures for the “Release … percent of the substance released” value in data set [1] (t 15 min) and in data set [1] (t 30 min) were 99.62% and 101.02%, respectively.
Consider `CN(C)C[C@H]1CCCC[C@]1(O)c1cccc(O)c1.Cl` [HCl-2], for which the “Release … percent of the substance released” value is on record as 97.72% in data set [1] (t 2 min); 98.52% in data set [1] (t 4 min); 100.41% in data set [1] (t 6 min); 98.83% in data set [1] (t 8 min); 100.29% in data set [1] (t 10 min); 98.70% in data set [1] (t 12 min). Moreover, the “Release … percent of the substance released” value in data set [1] (t 15 min) is 100.05%; in data set [1] (t 30 min) it was 99.96%.
For `O=C(O)/C=C/c1ccccc1` [cinnamate], the “ΔM Desorption” value in data set [2] (1st cycle, RH 0.0 %) was determined as 0.0012%; in data set [2] (1st cycle, RH 10.0 %), 0.0432%; in data set [2] (1st cycle, RH 20.0 %) it was 0.0766%; in data set [2] (1st cycle, RH 30.0 %), 0.1106%; in data set [2] (1st cycle, RH 40.0 %), 0.1370%; in data set [2] (1st cycle, RH 50.0 %) it was 0.1624%. Moreover, the “ΔM Desorption” value in data set [2] (1st cycle, RH 60.0 %) is 0.2010%; in data set [2] (1st cycle, RH 70.0 %) it was 0.2562%; in data set [2] (1st cycle, RH 80.0 %) it was 0.2988%; in data set [2] (1st cycle, RH 90.0 %) it was 0.3057%; in data set [2] (2nd cycle, RH 0.0 %), −0.0605%; in data set [2] (2nd cycle, RH 10.0 %), −0.0253%. Moreover, the “ΔM Desorption” value in data set [2] (2nd cycle, RH 20.0 %) came out at 0.0046%; in data set [2] (2nd cycle, RH 30.0 %) it was 0.0322%; in data set [2] (2nd cycle, RH 40.0 %) it was 0.0605%; in data set [2] (2nd cycle, RH 50.0 %) it was 0.0881%; in data set [2] (2nd cycle, RH 60.0 %) it was 0.1169%; in data set [2] (2nd cycle, RH 70.0 %), 0.1480%. Further, the “ΔM Desorption” value in data set [2] (2nd cycle, RH 80.0 %) is recorded as 0.1658%; in data set [2] (2nd cycle, RH 90.0 %), 0.1532%. The “ΔM Hysteresis” value in data set [2] (1st cycle, RH 50.0 %) is −0.0006%; in data set [2] (1st cycle, RH 60.0 %), −0.0299%; in data set [2] (1st cycle, RH 70.0 %), −0.0081%; in data set [2] (1st cycle, RH 80.0 %), 0.0150%; in data set [2] (2nd cycle, RH 10.0 %), −0.0610%; in data set [2] (2nd cycle, RH 20.0 %) it was −0.0576%. Also, the “ΔM Hysteresis” value in data set [2] (2nd cycle, RH 30.0 %) is given as −0.0576%; in data set [2] (2nd cycle, RH 40.0 %) it was −0.0553%; in data set [2] (2nd cycle, RH 50.0 %) it was −0.0530%; in data set [2] (2nd cycle, RH 60.0 %), −0.0461%; in data set [2] (2nd cycle, RH 70.0 %), −0.0248%; in data set [2] (2nd cycle, RH 80.0 %) it was −0.0052%. Moreover, the “ΔM Sorption” value is 0.1629% in data set [2] (1st cycle, RH 50.0 %); 0.2309% in data set [2] (1st cycle, RH 60.0 %); 0.2643% in data set [2] (1st cycle, RH 70.0 %); 0.2839% in data set [2] (1st cycle, RH 80.0 %); 0.3057% in data set [2] (1st cycle, RH 90.0 %); 0.0012% in data set [2] (2nd cycle, RH 0.0 %). The “ΔM Sorption” value in data set [2] (2nd cycle, RH 10.0 %) stood at 0.0357%; in data set [2] (2nd cycle, RH 20.0 %), 0.0622%; in data set [2] (2nd cycle, RH 30.0 %) it was 0.0898%; in data set [2] (2nd cycle, RH 40.0 %), 0.1157%; in data set [2] (2nd cycle, RH 50.0 %) it was 0.1411%; in data set [2] (2nd cycle, RH 60.0 %), 0.1629%. Moreover, the “ΔM Sorption” value was 0.1727% in data set [2] (2nd cycle, RH 70.0 %); 0.1710% in data set [2] (2nd cycle, RH 80.0 %); 0.1532% in data set [2] (2nd cycle, RH 90.0 %); −0.0605% in data set [2] (3rd cycle, RH 0.0 %); −0.0190% in data set [2] (3rd cycle, RH 10.0 %); 0.0104% in data set [2] (3rd cycle, RH 20.0 %). In addition, the “ΔM Sorption” value is 0.0345% in data set [2] (3rd cycle, RH 30.0 %); 0.0599% in data set [2] (3rd cycle, RH 40.0 %); 0.0829% in data set [2] (3rd cycle, RH 50.0 %). For the same compound, the “release rate compared to the hydrochloride salt” value in data set [1] is “decreased release rates compared to the hydrochloride salt”.
With `CCCCCCCCCC(=O)O.CN(C)CC1CCCCC1(O)c1cccc(O)c1` (stereo not shown) [decanoate], the “release rate compared to the hydrochloride salt” value in data set [1] is reported as “decreased release rates compared to the hydrochloride salt”.
The same measure, in the same setting: the value for octanoate was “decreased release rates compared to the hydrochloride salt”.
